The source of these data is US7109235B2, “Microtubule stabilizing compounds” (The Board of Trustees of the University Illinois, priority 2002, dated 2006).

≈ marks a conversion by molar mass, not a printed value. Like-named read-outs stand apart in the source and are kept apart here.

Series [1] has as its system SKVLB-1 multidrug resistant cell line. Conditions: multidrug resistant cell line SKVLB-1; read-out: IC50 against SKVLB-1; cited from earlier work.
Series [2] deals with MCF-7 breast cancer cells. As to the kind of experiment: cytotoxicity assay on MCF-7 breast cancer cells. It counts as cell-based, human. The procedure:
The cytotoxic activity of trans-desoxylaulimalide (12a) was evaluated. An initial cytotoxicity study with desoxylaulimalide (12a) was conducted to compare compound (12a) to taxol and laulimalide for effects on the growth of human MCF-7 breast cancer cells. Cytotoxicity assays on MCF-7 were performed as described in P. Giannakakou et al., J. Biol. Chem., 272, 17118–17125 (1997). Consistent with its activity in a tubulin assembly assay, desoxylaulimalide (12a) was an inhibitor of cell growth. […] Thus, desoxylaulimalide (12a) is about 1/50 as active as laulimalide in the MCF-7 cells. This compares with the 340-fold lower activity in MDA-MB-435 breast cancer cells observed for isolaulimalide (9), which also lacks the epoxide moiety.

Series [3] deals with MDA-MB-435 and SK-OV-3 cell lines. Conditions: drug-sensitive cell lines MDA-MB-435 and SK-OV-3; read-out: IC50, inhibition of cell proliferation; cited from earlier work.
In the next series the test system is KB cell line. The note with it: cited from earlier work.
Series [4] concerns P388, A549, HT29, and MEL28 cell lines. Conditions: range over four cell lines; cited from earlier work.
For series [5], the system named is P-glycoprotein-mediated MDR cell lines. Conditions: cited from earlier work.
Series [6] relates to MDA-MB-435 breast cancer cells. Conditions: cited from earlier work.
In another series the test system is tubulin. As to the kind of experiment: tubulin assembly assay / microtubule stabilization. It counts as biochemical.
Where [7] appears, read: Homo sapiens, MCF7, read-out: IC50, inhibition of cell growth.

Regarding `C=C1C[C@H](C)C[C@@H]2CC=C[C@@H](C/C=C\C(=O)O[C@H]([C@@H](O)/C=C/[C@@H]3CC(C)=CCO3)C[C@@H]3O[C@H]3[C@@H](O)C1)O2` [laulimalide], the IC50 in series [1] is 1.2 µM; in series [2] (setting [7]), 0.007 µM; in series [3], 0.005 to 0.012 µM. For the same compound, in the series on KB cell line, the “IC50, cytotoxicity against KB cell line” value is 0.015 µg/mL (≈ 0.0291 µM). Also, the “IC50, cytotoxicity against P388, A549, HT29, and MEL28 cell lines” value in series [4] was 0.01 to 0.05 µg/mL. Also, the “fold more potent than taxol” value in series [5] is 100 fold.

Regarding `C=C1CC(C)C[C@@H]2CC=C[C@@H](C/C=C\C(=O)O[C@@H]3C[C@H](O[C@@H]3/C=C/[C@H]3CC(C)=CCO3)[C@H](O)C(O)C1)O2` (stereo partly drawn) [isolaulimalide], the IC50 in series [1] is 2.6 µM; with KB cell line (read-out: IC50 against KB cell line) it was greater than 0.2 µM. In series [6], the “fold lower activity (compared with laulimalide)” value is given as 340 fold.

Take `C=C1C[C@H](C)C[C@@H]2CC=C[C@@H](C/C=C\C(=O)O[C@H]([C@@H](O)/C=C/[C@@H]3CC(C)=CCO3)C/C=C/[C@@H](O)C1)O2` [12a, desoxylaulimalide]: the IC50 in series [2] (setting [7]) turned out to be 0.36 µM. Further, in series [2] (MCF-7 cells), the “activity relative to laulimalide” value is reported as “about 1/50”. For the same compound, the “effect on the tubulin assembly reaction” value in the series on tubulin is “stimulates the tubulin assembly reaction”. In addition, the “potency with respect to microtubule stabilization” value in the series with tubulin (compared with laulimalide (2)) is listed as “potency similar to laulimalide (2)”.

On to `CC(=O)O[C@H]1C(=O)[C@@]2(C)[C@H]([C@H](OC(=O)c3ccccc3)[C@]3(O)C[C@H](OC(=O)[C@H](O)[C@@H](NC(=O)c4ccccc4)c4ccccc4)C(C)=C1C3(C)C)[C@]1(OC(C)=O)CO[C@@H]1C[C@@H]2O` [taxol], for which the IC50 is 0.0024 µM in series [2] (MCF7, human MCF-7 breast cancer cells, read-out: IC50, inhibition of cell growth) and 1 to 2 µM in series [3].
